Earlier results, collected in patent US6426338B1, “Therapy for constipation” (priority 1997, dated 2002).

Key:
[1] = tested on: patients with constipation; conditions: colchicine alone, in a lower dose

Which stimulation of defecation [1] does the source give for COc1cc2c(c(OC)c1OC)-c1ccc(OC)c(=O)cc1[C@@H](NC(C)=O)CC2 [colchicine] here?
Its stimulation of defecation is “insufficient in most patients to stimulate defecation”.

And the long-term toxicity (given alone in the doses of Verne et al., long-term)?
The long-term toxicity was “can cause muscle and nerve damage (myopathy and neuropathy)”.

For CN[C@H](CC(C)C)C(=O)N[C@H]1C(=O)N[C@@H](CC(N)=O)C(=O)N[C@H]2C(=O)N[C@H]3C(=O)N[C@H](C(=O)N[C@H](C(=O)O)c4cc(O)cc(O)c4-c4cc3ccc4O)[C@H](O)c3ccc(c(Cl)c3)Oc3cc2cc(c3O[C@@H]2O[C@H](CO)[C@@H](O)[C@H](O)[C@H]2O[C@H]2C[C@](C)(N)[C@H](O)[C@H](C)O2)Oc2ccc(cc2Cl)[C@H]1O [vancomycin], which side-effect (long-term use as antibiotic) is on record?
The side-effect was “neurotoxic”.
